#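 All cell lines were grown in 96-well plates and treated with compound for 48 hours. TGI denotes the concentration required for complete inhibition of growth.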
# Legend:
# Assay in all cases: growth of human tumour cells (NCI), 48 h
# OVCAR-4 ovarian = test system: OVCAR-4 ovarian
# SF-268 CNS = test system: SF-268 CNS
# NCI-H23 lung = test system: NCI-H23 lung
# OVCAR-3 ovarian = test system: OVCAR-3 ovarian
# U251 CNS = test system: U251 CNS
# HCC-2998 colon = test system: HCC-2998 colon
# SW-620 colon = test system: SW-620 colon
# SK-OV-3 ovarian = test system: SK-OV-3 ovarian
# HT29 colon = test system: HT29 colon
# MDA-MB-435 = test system: MDA-MB-435
# K-562 leukemia = test system: K-562 leukemia
# CAKI-1 renal = test system: CAKI-1 renal
# HCT-15 colon = test system: HCT-15 colon
# MDA-MB-231 breast = test system: MDA-MB-231 breast
# OVCAR-8 ovarian = test system: OVCAR-8 ovarian
# MALME-3M melanoma = test system: MALME-3M melanoma
# UACC-257 melanoma = test system: UACC-257 melanoma
# NCI-H460 lung = test system: NCI-H460 lung
# SN12C renal = test system: SN12C renal
# SF-295 CNS = test system: SF-295 CNS
# PC-3 prostate = test system: PC-3 prostate
# SNB-19 CNS = test system: SNB-19 CNS
# UO-31 renal = test system: UO-31 renal
# NCI/ADR-RES ovarian = test system: NCI/ADR-RES ovarian
# HCT-116 colon = test system: HCT-116 colon
# HOP-62 NSCLC = test system: HOP-62 NSCLC
# BT-549 breast = test system: BT-549 breast
# MOLT-4 leukemia = test system: MOLT-4 leukemia
# KM12 colon = test system: KM12 colon
# A549 NSCLC = test system: A549 NSCLC
# SK-MEL-2 melanoma = test system: SK-MEL-2 melanoma
# MDA-N = test system: MDA-N
# 786-0 renal = test system: 786-0 renal
# NCI-H522 lung = test system: NCI-H522 lung
# LOX IMVI melanoma = test system: LOX IMVI melanoma
# NCI-H226 lung = test system: NCI-H226 lung
# IGROV1 ovarian = test system: IGROV1 ovarian
# RXF 393 renal = test system: RXF 393 renal
# CCRF-CEM leukemia = test system: CCRF-CEM leukemia
# SK-MEL-5 melanoma = test system: SK-MEL-5 melanoma
# DU-145 prostate = test system: DU-145 prostate
# COLO 205 colon = test system: COLO 205 colon
# UACC-62 melanoma = test system: UACC-62 melanoma
# TK-10 renal = test system: TK-10 renal
# HOP-92 NSCLC = test system: HOP-92 NSCLC
# T-47D breast = test system: T-47D breast
# HS 578T breast = test system: HS 578T breast
# EKVX NSCLC = test system: EKVX NSCLC
# M14 melanoma = test system: M14 melanoma
# OVCAR-5 ovarian = test system: OVCAR-5 ovarian
# SK-MEL-28 melanoma = test system: SK-MEL-28 melanoma
# RPMI-8226 leukemia = test system: RPMI-8226 leukemia
# HL-60(TB) leukemia = test system: HL-60(TB) leukemia
# A498 renal = test system: A498 renal
# ACHN renal = test system: ACHN renal
# MCF7 breast = test system: MCF7 breast
# SF-539 CNS = test system: SF-539 CNS
compound,measurement,setting,value
CC1=C[C@H](O)[C@@]2(C)[C@@H]([C@@H]1C)[C@H]1CC[C@@H]3[C@@]4(C)CC[C@H](O)C(C)(C)[C@@H]4CC[C@@]3(C)[C@]1(C)C[C@@H]2O,TGI,OVCAR-4 ovarian,33.7 µM
same,TGI,SF-268 CNS,25.3 µM
same,TGI,NCI-H23 lung,45.3 µM
same,TGI,OVCAR-3 ovarian,31.4 µM
same,TGI,U251 CNS,35.2 µM
same,TGI,HCC-2998 colon,33 µM
same,TGI,SW-620 colon,47.3 µM
same,TGI,SK-OV-3 ovarian,35.7 µM
same,TGI,HT29 colon,27.1 µM
same,TGI,MDA-MB-435,39.3 µM
same,TGI,K-562 leukemia,48.2 µM
same,TGI,CAKI-1 renal,36.6 µM
same,TGI,HCT-15 colon,41.3 µM
same,TGI,MDA-MB-231 breast,35.1 µM
same,TGI,OVCAR-8 ovarian,48 µM
same,TGI,MALME-3M melanoma,40.7 µM
same,TGI,UACC-257 melanoma,34.5 µM
same,TGI,NCI-H460 lung,33.4 µM
same,TGI,SN12C renal,29.2 µM
same,TGI,SF-295 CNS,31.1 µM
same,TGI,PC-3 prostate,35.1 µM
same,TGI,SNB-19 CNS,30.1 µM
same,TGI,UO-31 renal,33.2 µM
same,TGI,NCI/ADR-RES ovarian,44.5 µM
same,TGI,HCT-116 colon,25.1 µM
same,TGI,HOP-62 NSCLC,33.4 µM
same,TGI,BT-549 breast,45.1 µM
same,TGI,MOLT-4 leukemia,34.5 µM
same,TGI,KM12 colon,39.2 µM
same,TGI,A549 NSCLC,26.9 µM
same,TGI,SK-MEL-2 melanoma,38.4 µM
same,TGI,MDA-N,29.7 µM
same,TGI,786-0 renal,28.2 µM
same,TGI,NCI-H522 lung,38 µM
same,TGI,LOX IMVI melanoma,54 µM
same,TGI,NCI-H226 lung,45.7 µM
same,TGI,IGROV1 ovarian,41.2 µM
same,TGI,RXF 393 renal,34.1 µM
same,TGI,CCRF-CEM leukemia,40.5 µM
same,TGI,SK-MEL-5 melanoma,30.4 µM
same,TGI,DU-145 prostate,31 µM
same,TGI,COLO 205 colon,37.9 µM
same,TGI,UACC-62 melanoma,35.3 µM
same,TGI,TK-10 renal,36.8 µM
same,TGI,HOP-92 NSCLC,29.6 µM
same,TGI,T-47D breast,28.9 µM
same,TGI,HS 578T breast,55 µM
same,TGI,EKVX NSCLC,25.6 µM
same,TGI,M14 melanoma,31.6 µM
same,TGI,OVCAR-5 ovarian,29.4 µM
same,TGI,SK-MEL-28 melanoma,34.4 µM
Cc1ccc(Nc2nc(C)c(C(=O)CC(=O)C(=O)Nc3c(C)cccc3C(C)(C)C)s2)cc1,TGI,OVCAR-4 ovarian,> 100 µM
same,TGI,SF-268 CNS,> 100 µM
same,TGI,NCI-H23 lung,> 100 µM
same,TGI,OVCAR-3 ovarian,> 100 µM
same,TGI,U251 CNS,> 100 µM
same,TGI,HCC-2998 colon,> 100 µM
same,TGI,SW-620 colon,> 100 µM
same,TGI,SK-OV-3 ovarian,> 100 µM
same,TGI,HT29 colon,> 100 µM
same,TGI,MDA-MB-435,> 100 µM
same,TGI,K-562 leukemia,> 100 µM
same,TGI,CAKI-1 renal,> 100 µM
same,TGI,HCT-15 colon,> 100 µM
same,TGI,MDA-MB-231 breast,> 100 µM
same,TGI,RPMI-8226 leukemia,> 100 µM
same,TGI,OVCAR-8 ovarian,> 100 µM
same,TGI,UACC-257 melanoma,> 100 µM
same,TGI,NCI-H460 lung,> 100 µM
same,TGI,SN12C renal,> 100 µM
same,TGI,SF-295 CNS,> 100 µM
same,TGI,PC-3 prostate,> 100 µM
same,TGI,SNB-19 CNS,> 100 µM
same,TGI,UO-31 renal,> 100 µM
same,TGI,NCI/ADR-RES ovarian,> 100 µM
same,TGI,HCT-116 colon,> 100 µM
same,TGI,HOP-62 NSCLC,> 100 µM
same,TGI,BT-549 breast,> 100 µM
same,TGI,MOLT-4 leukemia,> 100 µM
same,TGI,KM12 colon,> 100 µM
same,TGI,A549 NSCLC,> 100 µM
same,TGI,SK-MEL-2 melanoma,> 100 µM
same,TGI,HL-60(TB) leukemia,> 100 µM
same,TGI,MDA-N,> 100 µM
same,TGI,786-0 renal,> 100 µM
same,TGI,NCI-H522 lung,> 100 µM
same,TGI,LOX IMVI melanoma,> 100 µM
same,TGI,NCI-H226 lung,> 100 µM
same,TGI,IGROV1 ovarian,> 100 µM
same,TGI,RXF 393 renal,> 100 µM
same,TGI,CCRF-CEM leukemia,> 100 µM
same,TGI,SK-MEL-5 melanoma,> 100 µM
same,TGI,DU-145 prostate,> 100 µM
same,TGI,A498 renal,> 100 µM
same,TGI,ACHN renal,> 100 µM
same,TGI,MCF7 breast,> 100 µM
same,TGI,COLO 205 colon,> 100 µM
same,TGI,SF-539 CNS,> 100 µM
same,TGI,UACC-62 melanoma,> 100 µM
same,TGI,TK-10 renal,> 100 µM
same,TGI,HOP-92 NSCLC,> 100 µM
same,TGI,T-47D breast,> 100 µM
same,TGI,HS 578T breast,> 100 µM
same,TGI,EKVX NSCLC,> 100 µM
same,TGI,M14 melanoma,> 100 µM
same,TGI,OVCAR-5 ovarian,> 100 µM

# Reference: PubChem BioAssay (NCI)
